Assay results published in patent US6737383B1, “Herbicidal oxadiazolidines” (priority 1999, dated 2004).

Key:
deadnettle = experiment: Test E deadnettle; format: in vivo, Lamium amplexicaule; settings: Preemergence
cotton = experiment: Test C postemergence cotton; format: in vivo, Gossypium hirsutum; settings: 0 to 100 scale, 0 no effect, 100 complete control
Method in brief: (§1)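 In this greenhouse assay, treated and untreated plants were kept for approximately 14 to 21 days following postemergence application, then rated by eye on a scale from 0 (no effect) to 100 (complete control).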

wild buckwheat = experiment: Test E wild buckwheat; format: in vivo, Polygonum convolvulus; settings: Postemergence; for Plant response rating, Wild buckwheat: 0 to 100 scale
Method in brief: (§2)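 Greenhouse test: for postemergence, foliar application at 1- to 4-leaf stage; compound in non-phytotoxic solvent with surfactant. Rating is visual, relative to untreated controls, about 21 to 28 days after treatment.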

common pursiane = experiment: Test D common purslane; format: in vivo, Portulaca oleracea; settings: Postemergence, 0 to 100 scale
large crabgrass = experiment: Test C postemergence large crabgrass; format: in vivo, Digitaria sanguinalis; settings: 0 to 100 scale, 0 no effect, 100 complete control
Method in brief: as §1

barnyardgrass = experiment: Test C postemergence barnyardgrass; format: in vivo, Echinochloa crus-galli; settings: 0 to 100 scale, 0 no effect, 100 complete control
Method in brief: as §1

wild poinsettia = experiment: Test C postemergence wild poinsettia; format: in vivo, Euphorbia heterophylla; settings: 0 to 100 scale, 0 no effect, 100 complete control
Method in brief: as §1

soybean = experiment: Test C postemergence soybean; format: in vivo, Glycine max; settings: 0 to 100 scale, 0 no effect, 100 complete control
Method in brief: as §1

eastern black nightshade = experiment: Test C postemergence eastern black nightshade; format: in vivo, Solanum ptycanthum; settings: 0 to 100 scale, 0 no effect, 100 complete control
Method in brief: as §1

jointed goatgrass = experiment: Test E jointed goatgrass; format: in vivo, Aegilops cylindrica; settings: Postemergence; for Plant response rating, Jointed goatgra: 0 to 100 scale
Method in brief: as §2

field bindweed = experiment: Test C postemergence field bindweed; format: in vivo, Convolvulus arvensis; settings: 0 to 100 scale, 0 no effect, 100 complete control
Method in brief: as §1

[1] = Rate 500 g/ha, 0 no effect, 100 complete control
[2] = Rate 250 g/ha, 0 to 100 scale where 0 is no effect and 100 is complete control

C=CCn1c(=O)on(C(=O)N(c2ccc(F)cc2)C(C)C)c1=O [Compound 146]
0: Plant response rating, Wild buckwheat (wild buckwheat; Rate 125 g/ha) | Plant response rating, C. purslane (common pursiane; Rate 64 g/ha, 0 no injury, 100 complete control) | Plant response rating, C. purslane (common pursiane; Rate 125 g/ha, 0 no injury, 100 complete control) | Plant response rating Large crabgrass (large crabgrass; Rate 140 g/ha) | Plant response rating Wild poinsettia (wild poinsettia; Rate 140 g/ha) | Plant response rating E. blacknightsh (eastern black nightshade; Rate 140 g/ha) | Plant response rating Field bindweed (field bindweed; Rate 140 g/ha) | Plant response rating Field bindweed (field bindweed; Rate 280 g/ha) | Plant response rating Field bindweed (field bindweed; Rate 560 g/ha) | Plant response rating Field bindweed (field bindweed; Rate 1120 g/ha)
10: Wild buckwheat plant response rating (wild buckwheat; [2]) | Jointed goatgra plant response rating (jointed goatgrass; [2])
85: Plant response rating, Barnyardgrass (barnyardgrass; Rate 560 g/ha) | Plant response rating, Soybean (soybean; Rate 1120 g/ha) | Plant response rating E. blacknightsh (eastern black nightshade; Rate 560 g/ha) | Plant response rating E. blacknightsh (eastern black nightshade; Rate 1120 g/ha)
55: Plant response rating, Jointed goatgra (jointed goatgrass; Rate 62 g/ha)
60: Plant response rating Large crabgrass (large crabgrass; Rate 280 g/ha) | Plant response rating Large crabgrass (large crabgrass; Rate 560 g/ha) | Plant response rating, Barnyardgrass (barnyardgrass; Rate 140 g/ha) | Plant response rating, Soybean (soybean; Rate 560 g/ha)
50: Plant response rating, Deadnettle (deadnettle; Rate 500 g/ha, 0 to 100 scale where 0 is no effect and 100 is complete control) | Plant response rating, Wild buckwheat (wild buckwheat; [1]) | Plant response rating Wild poinsettia (wild poinsettia; Rate 560 g/ha) | Plant response rating, Soybean (soybean; Rate 280 g/ha)
95: Plant response rating, Barnyardgrass (barnyardgrass; Rate 1120 g/ha)
80: Plant response rating Large crabgrass (large crabgrass; Rate 1120 g/ha) | Plant response rating, Barnyardgrass (barnyardgrass; Rate 280 g/ha)
70: Plant response rating Cotton (cotton; Rate 1120 g/ha) | Plant response rating Wild poinsettia (wild poinsettia; Rate 1120 g/ha)
15: Plant response rating, Jointed goatgra (jointed goatgrass; Rate 125 g/ha)
30: Plant response rating E. blacknightsh (eastern black nightshade; Rate 280 g/ha)
65: Plant response rating Cotton (cotton; Rate 280 g/ha) | Plant response rating Cotton (cotton; Rate 560 g/ha)
20: Plant response rating, Wild buckwheat (wild buckwheat; Rate 62 g/ha) | Plant response rating, C. purslane (common pursiane; Rate 250 g/ha) | Plant response rating, C. purslane (common pursiane; Rate 500 g/ha)
40: Plant response rating, Deadnettle (deadnettle; Rate 125 g/ha, 0 to 100 scale (0 no effect, 100 complete control)) | Deadnettle plant response rating (0 to 100 scale) (deadnettle; Rate 250 g/ha) | Plant response rating Cotton (cotton; Rate 140 g/ha) | Plant response rating Wild poinsettia (wild poinsettia; Rate 280 g/ha) | Plant response rating, Soybean (soybean; Rate 140 g/ha) | Plant response rating, Jointed goatgra (jointed goatgrass; [1])
